According to the NIST ThermoML archive (doi:10.1021/je100300s):
Numbers after ± are expanded uncertainties.

Experiment: xn = mol fraction of the nth substance listed
Conditions: 101 kPa, Liquid

CC(O)CN (centres undefined) [1-amino-2-propanol] + O
Conditions	mass density [kg/m3]	viscosity [mPa·s]
298.15 K, x1 = 0.05	999.9 ± 0.24	2.11 ± 0.079
298.15 K, x1 = 0.07	1000.35 ± 0.24	2.696 ± 0.1
298.15 K, x1 = 0.0986	1002.43 ± 0.25	3.902 ± 0.14
298.15 K, x1 = 0.1993	1004.57 ± 0.27	9.7 ± 0.32
298.15 K, x1 = 0.3003	999.91 ± 0.27	15.54 ± 0.49
298.15 K, x1 = 0.3955	992.94 ± 0.3	22.19 ± 0.68
298.15 K, x1 = 0.4929	985.82 ± 0.33	26.76 ± 0.82
298.15 K, x1 = 0.5995	978.02 ± 0.36	29.01 ± 0.89
298.15 K, x1 = 0.7002	971.66 ± 0.39	29.99 ± 0.92
298.15 K, x1 = 0.8006	965.96 ± 0.42	30.4 ± 0.93
298.15 K, x1 = 0.8992	961.08 ± 0.44	28.55 ± 0.88
298.15 K, x1 = 1	956.51 ± 0.47	26.68 ± 0.82
303.15 K, x1 = 0.05	997.07 ± 0.25	1.856 ± 0.07
303.15 K, x1 = 0.07	998.1 ± 0.25	2.282 ± 0.085
303.15 K, x1 = 0.0986	999.83 ± 0.25	3.248 ± 0.12
303.15 K, x1 = 0.1993	1001.03 ± 0.26	7.671 ± 0.26
303.15 K, x1 = 0.3003	996.08 ± 0.28	12.04 ± 0.38
303.15 K, x1 = 0.3955	989.08 ± 0.31	16.82 ± 0.53
303.15 K, x1 = 0.4929	981.92 ± 0.33	19.5 ± 0.6
303.15 K, x1 = 0.5995	974.2 ± 0.37	21.38 ± 0.66
303.15 K, x1 = 0.7002	967.74 ± 0.4	22.78 ± 0.7
303.15 K, x1 = 0.8006	962.01 ± 0.42	22.97 ± 0.71
303.15 K, x1 = 0.8992	957.12 ± 0.45	22.19 ± 0.69
303.15 K, x1 = 1	952.52 ± 0.48	20.31 ± 0.63
313.15 K, x1 = 0.05	992.68 ± 0.26	1.431 ± 0.055
313.15 K, x1 = 0.07	993.09 ± 0.26	1.785 ± 0.067
313.15 K, x1 = 0.0986	994.25 ± 0.26	2.359 ± 0.088
313.15 K, x1 = 0.1993	993.72 ± 0.27	5.102 ± 0.18
313.15 K, x1 = 0.3003	988.29 ± 0.3	7.551 ± 0.25
313.15 K, x1 = 0.3955	981.19 ± 0.32	9.95 ± 0.32
313.15 K, x1 = 0.4929	973.92 ± 0.35	11.79 ± 0.38
313.15 K, x1 = 0.5995	966.3 ± 0.38	12.85 ± 0.41
313.15 K, x1 = 0.7002	959.83 ± 0.41	13.14 ± 0.42
313.15 K, x1 = 0.8006	954.01 ± 0.44	13.56 ± 0.43
313.15 K, x1 = 0.8992	949.12 ± 0.47	12.83 ± 0.41
313.15 K, x1 = 1	944.42 ± 0.49	12.51 ± 0.4
323.15 K, x1 = 0.05	987.66 ± 0.27	1.136 ± 0.044
323.15 K, x1 = 0.07	987.41 ± 0.27	1.393 ± 0.053
323.15 K, x1 = 0.0986	988.2 ± 0.27	1.561 ± 0.059
323.15 K, x1 = 0.1993	986.18 ± 0.29	3.582 ± 0.13
323.15 K, x1 = 0.3003	980.32 ± 0.31	5.59 ± 0.2
323.15 K, x1 = 0.3955	973.13 ± 0.34	6.649 ± 0.23
323.15 K, x1 = 0.4929	965.84 ± 0.37	7.64 ± 0.26
323.15 K, x1 = 0.5995	958.38 ± 0.4	7.994 ± 0.27
323.15 K, x1 = 0.7002	951.77 ± 0.43	8.473 ± 0.28
323.15 K, x1 = 0.8006	945.87 ± 0.46	8.748 ± 0.29
323.15 K, x1 = 0.8992	940.96 ± 0.48	8.041 ± 0.27
323.15 K, x1 = 1	936.19 ± 0.51	7.543 ± 0.26
333.15 K, x1 = 0.05	982.03 ± 0.28	0.929 ± 0.037
333.15 K, x1 = 0.07	981.49 ± 0.28	1.118 ± 0.044
333.15 K, x1 = 0.0986	981.57 ± 0.29	1.222 ± 0.047
333.15 K, x1 = 0.1993	978.5 ± 0.3	2.627 ± 0.097
333.15 K, x1 = 0.3003	972.15 ± 0.33	3.944 ± 0.14
333.15 K, x1 = 0.3955	964.88 ± 0.36	4.988 ± 0.18
333.15 K, x1 = 0.4929	957.68 ± 0.39	5.701 ± 0.2
333.15 K, x1 = 0.5995	950.15 ± 0.42	6.163 ± 0.21
333.15 K, x1 = 0.7002	943.53 ± 0.45	5.753 ± 0.2
333.15 K, x1 = 0.8006	937.62 ± 0.47	6.023 ± 0.21
333.15 K, x1 = 0.8992	932.66 ± 0.5	5.483 ± 0.2
333.15 K, x1 = 1	927.84 ± 0.53	5.22 ± 0.19
343.15 K, x1 = 0.05	975.62 ± 0.3	0.775 ± 0.031
343.15 K, x1 = 0.07	974.99 ± 0.3	0.922 ± 0.037
343.15 K, x1 = 0.0986	973.44 ± 0.31	0.993 ± 0.039
343.15 K, x1 = 0.1993	970.55 ± 0.32	2.088 ± 0.078
343.15 K, x1 = 0.3003	963.77 ± 0.35	2.904 ± 0.11
343.15 K, x1 = 0.3955	956.45 ± 0.38	3.619 ± 0.13
343.15 K, x1 = 0.4929	949.25 ± 0.4	4.075 ± 0.15
343.15 K, x1 = 0.5995	941.71 ± 0.44	4.371 ± 0.16
343.15 K, x1 = 0.7002	935.09 ± 0.46	4.565 ± 0.17
343.15 K, x1 = 0.8006	929.19 ± 0.49	4.467 ± 0.16
343.15 K, x1 = 0.8992	924.2 ± 0.52	3.927 ± 0.14
343.15 K, x1 = 1	919.37 ± 0.54	3.77 ± 0.14
